From US5587402A, “Regression of mammalian leukemia cell tumors” (priority 1995, dated 1996)
“Also recorded” adds a separate entry of the source.

How the values were obtained:
[1] = tested on: isoprenylation of 21-26 kDa proteins in M600B cells; assay: Protein isoprenylation in M600B human mammary epithelial cells; assay type: cell-based
[2] = tested on: isoprenylation of 21-26 kDa proteins in HT29 cells; assay: Protein isoprenylation in HT29 cells; assay type: cell-based; conditions: Homo sapiens, HT-29; 1 mM; read-out: decrease of isoprenylation of 21-26 kDa proteins
Procedure: "Isoprenylation" is the addition of a multiple of the 5 carbon isoprene unit to a protein. Our experiments in isoprenylation are reported at Crowell, et al. 1991, J. Biol. Chem. 266: 17679-17685. To test whether a specific monoterpene affects isoprenylation of proteins in cells, cell extracts were incubated with a radioactive isoprene precursor and 0-5 mM of the test monoterpene and then subjected to SDS-PAGE. Because they carried a radioactive label, isoprenylated proteins were visualized by fluorography. As a control, cells were incubated without the monoterpene.
Cells were harvested after trypsin treatment, washed twice with phosphate-buffered saline, suspended in electrophoresis sample buffer (Laemmli, U.K., 1970, Nature 227: 680-685), and either analyzed immediately or stored at -20° C. Whole cell extracts were analyzed by SDS-PAGE on 16-cm×18-cm×0.75-mm gels by the method of Laemmli (supra). The acrylamide concentrations were 5% for the stacking gel and 12% for the separating gel. […] Some fluorograms were analyzed further by densitometry. Where indicated, gels were sliced, dissolved at 50° C. for 3 hours in 0.5 ml of water +0.5 ml of Solvable (Amersham), and then analyzed by scintillation spectrometry in 10 ml of Atomlight (Amersham) mixture. Protein content was measured by the method of Lowry, et al. (1951, J. Biol. Chem. 193: 265-275). […]

[3] = Toxicity of dietary perillyl alcohol in rats; assay type: in vivo, Wistar-Furth female rats
Procedure: We used Wistar-Furth female rats for in vivo studies. Wistar-Furth female rats were obtained from Harlan Sprague-Dawley, Inc., (Madison, Wis.). All rats, arriving at 43-48 days of age, were housed at four rats per cage in wire-bottom metal cages and all were maintained with a light/dark cycle of 12 hours. Rates were provided Teklad Lab blox chow and acidified water ad libitum.
In the pair-feeding study, a group of 70 mammals was treated with DMBA. Beginning four weeks post-carcinogen administration, mammals were weighed and palpated weekly. Upon palpation of the first mammary tumor(s) (diameter≥3 mm), mammals were randomly assigned to control or 2.5% (w/w) perillyl alcohol diet and pair-fed.
Perillyl alcohol (>96% pure by GC analysis, Aldrich, Milwaukee, Wis.) and Teklad 4% mouse/rat diet meal were thoroughly mixed and stored at -20° C. Fresh diets were make every 7-10 days. All mammals were provided fresh diet daily to minimize evaporation of the monoterpenes. For pair-feeding, the quantity of diet consumed by the monoterpene-fed mammals was measured every 24 hours and the assigned partner was pair-fed accordingly.

[4] = tested on: bcr/abl-induced leukemia in mice; assay: bcr/abl-induced leukemia in mice fed perillyl alcohol diet; assay type: in vivo, mouse; conditions: diet containing 2% perillyl alcohol
Text: Experiments were done in which the non-malignant mouse bone marrow cell line, FDC-P1, was transformed with a retrovirus engineered to express the p210 bcr/abl oncogene. As described above, the bcr/abl oncogene plays a major role in the development of human Philadelphia chromosome (Ph) positive leukemias. Therefore, this mouse system represents a model of Ph^+ human leukemia. Injection of syngeneic animals with the bcr/abl transformed FDC-P1 cells induces lethal hematopoietic malignancy in which all animals had died within 30 days post-injection (absent perillyl alcohol).
Animals were fed either a control diet or a diet containing 2% perillyl alcohol and were challenged with either 3×10^5 or 3×10^6 bcr/abl-transformed cells. All animals on the control diet died by day 26.

C=C(C)[C@@H]1CC=C(CO)CC1 [perillyl alcohol]
isoprenylation of 21-26 kDa proteins ([1]; 3 mM, FIG. 2): inhibited significantly
inhibition of isoprenylation ([1]; all cell types examined): inhibition of isoprenylation
inhibition at 1000 µM [2]: 40%
maximum dose tolerated (diet) ([3]; diet, data not shown): 2.5%
body weight ([3]; perillyl alcohol-fed versus control, FIG. 8): initial weight loss followed by weight gain and a plateau; also recorded: did not achieve weights similar to controls
animals surviving longer than control animals ([4]; 3×10^5 or 3×10^6 cells, controls all died by day 26): about 20%
diet acceptance ([4]; most mice): most mice resisted the perillyl alcohol diet
